Experimental data reported in paper PMC9943626, “CS27109, A Selective Thyroid Hormone Receptor-β Agonist Alleviates Metabolic-Associated Fatty Liver Disease in Murine Models” (International Journal of Endocrinology, 2023).
Like-named read-outs stand apart in the source and are kept apart here.

Key:
[1] = biological target: T1, hERG (Homo sapiens, UniProt Q12809); assay: hERG test (QPatch HTX); format: cell-based
T1 construct: Ice Bioscience Co., Ltd. (Beijing, China)
Method: hERG test was performed by Ice Bioscience Co., Ltd. (Beijing, China) using the QPatch HTX method according to the manufacturer's instruction. 5 doses of CS27109 were tested, including […], each one with a duplicate. The tested values (current) were normalized to the negative control (0.1% DMSO), and IC50 was calculated based on the normalized data.

[2] = Tissue distribution in SD rat; format: in vivo; settings: for concentration at 2 h / concentration at 8 h: male, 10 mg/kg oral gavage once
Description: [Worded in the source for another organism; this organism is reported under the same test.] Half of mice for each group (n = 3) were sacrificed 2H and 8H after drug administration, respectively. Blood, heart, and liver were collected at each time point. Blood was processed and detected as mentioned previously. The heart and liver were homogenized and added extractant. The protein of tissue samples was precipitated by vortex oscillation, and the supernatant was collected and determined by LC-MS/MS procedures.

[3] = system: HFD-CHOL hamster model; assay: HFD-CHOL hamster model, serum biochemical test; format: in vivo, golden hamster; settings: mean ± SD; for HDL-c: model 3.6 ± 1.1, normal 1.6 ± 0.45; for LDL-c: model 17 ± 6.1, normal 1.3 ± 0.54; for TG: model 26 ± 24, normal 2.1 ± 1.1; for TC: model 37 ± 13, normal 3.1 ± 0.72; for ALT: model 278 ± 174, normal 94 ± 58; for AST: model 638 ± 323, normal 98 ± 45
Method: Hamster study: 58 golden hamsters ♂ aged 6–8 weeks were purchased from Beijing Vital River Laboratory Animal Technology Co., Ltd. 10 animals were kept with a diet of food control as normal control, and the other 48 animals were fed 40% fat and 1.25% cholesterol (HFD-CHOL, D12108C, Research diet) as a model group. […] Animals in the normal and model group were given solvent by oral gavage. All drugs, including solvent, were administered consecutively for 4 weeks and once a day. After sacrifice, blood was collected and serum was isolated for the AST, ALT, TG, TC, LDL-c, and HDL-c test.

[4] = system: HFD SD rat model; assay: HFD SD rat model, biochemical, organ weight ratio, liver lipid and liver pathology; format: in vivo; settings: mean ± SD; for Liver TC / Liver TG: HFD SD rat liver; for Liver TC: model 13 ± 2.2, normal 6.0 ± 0.76; for Liver TG: model 102 ± 36, normal 0.75 ± 12; for TG / HDL-c / LDL-c / TC / ALT / AST: HFD SD rat serum; for TG: model 0.82 ± 0.73, normal 0.53 ± 0.34; for HDL-c: model 1.2 ± 0.44, normal 1.1 ± 0.13; for LDL-c: model 9.7 ± 6.1, normal 0.28 ± 0.06; for TC: model 20 ± 13, normal 1.5 ± 0.20; for ALT: model 166 ± 95, normal 32 ± 6.8; for AST: model 365 ± 212, normal 103 ± 21
Method: SD rat study: 58 SD rats ♂ aged 5–6 weeks were purchased from Beijing Huafukang Biotechnology Co., Ltd. 9 animals were kept with a food control diet as normal control, and the other 49 animals were fed 40% fat, 1.25% cholesterol and 0.5% sodium cholate (HFD, D12109C, SYSE BIO, Changzhou, China) as a model group. […] Animals in the normal and model groups were given solvent by oral gavage. All drugs, including solvent, were administered consecutively for 4 weeks and once a day. After sacrifice, blood was collected and serum was isolated for the AST, ALT, TG, TC, LDL-c, and HDL-c test, and livers and hearts were weighed to calculate the liver weight ratio and the heart weight ratio, respectively. The right lobe of the liver of each rat was harvested for the TG and TC test (A110-1-1 and A111-1-1, Nanjing Jiancheng Institute of Bioengineering, Nanjing, China) according to the manufacturer's instructions. The left lobe of the liver was collected for hematoxylin-eosin staining (H and E staining) to quantify liver steatosis, inflammation, and ballooning.
The liver samples were fixed in 10% formalin and embedded in paraffin using standard methods. The 4 μm paraffin sections were then assessed for liver histology by H and E staining and liver fibrosis by sirius red staining. The stained sections were panoramic scanned with a NanoZoomer Digital Pathology scanner (S210, Hamamatsu, Japan), and then observed with different visual fields at different magnifications, and scored for different liver lobes in the sections. The total NAS score represents the sum of the scores for steatosis (0–3), lobular inflammation (0–3), and ballooning (0–2), and ranges from 0–8 [30]. VIS7.0 software was used to analyze the area of liver fibrosis in the panoramic scanning SR staining sections, and the percentage of liver fibrosis area in the whole section area was calculated.

[5] = heart, read-out: Heart concentration
[6] = liver, read-out: Liver concentration
[7] = serum, read-out: Serum concentration
[8] = 3 mg/kg (L) oral once a day 4 weeks
[9] = 10 mg/kg (CS27109-M, MGL-3196) oral once a day 4 weeks
[10] = 30 mg/kg (H) oral once a day 4 weeks
[11] = 5 mg/kg (L) oral once a day 4 weeks
[12] = 15 mg/kg (CS27109-M, MGL-3196) oral once a day 4 weeks
[13] = 45 mg/kg (H) oral once a day 4 weeks

T1 sequence (Q12809 whole entry): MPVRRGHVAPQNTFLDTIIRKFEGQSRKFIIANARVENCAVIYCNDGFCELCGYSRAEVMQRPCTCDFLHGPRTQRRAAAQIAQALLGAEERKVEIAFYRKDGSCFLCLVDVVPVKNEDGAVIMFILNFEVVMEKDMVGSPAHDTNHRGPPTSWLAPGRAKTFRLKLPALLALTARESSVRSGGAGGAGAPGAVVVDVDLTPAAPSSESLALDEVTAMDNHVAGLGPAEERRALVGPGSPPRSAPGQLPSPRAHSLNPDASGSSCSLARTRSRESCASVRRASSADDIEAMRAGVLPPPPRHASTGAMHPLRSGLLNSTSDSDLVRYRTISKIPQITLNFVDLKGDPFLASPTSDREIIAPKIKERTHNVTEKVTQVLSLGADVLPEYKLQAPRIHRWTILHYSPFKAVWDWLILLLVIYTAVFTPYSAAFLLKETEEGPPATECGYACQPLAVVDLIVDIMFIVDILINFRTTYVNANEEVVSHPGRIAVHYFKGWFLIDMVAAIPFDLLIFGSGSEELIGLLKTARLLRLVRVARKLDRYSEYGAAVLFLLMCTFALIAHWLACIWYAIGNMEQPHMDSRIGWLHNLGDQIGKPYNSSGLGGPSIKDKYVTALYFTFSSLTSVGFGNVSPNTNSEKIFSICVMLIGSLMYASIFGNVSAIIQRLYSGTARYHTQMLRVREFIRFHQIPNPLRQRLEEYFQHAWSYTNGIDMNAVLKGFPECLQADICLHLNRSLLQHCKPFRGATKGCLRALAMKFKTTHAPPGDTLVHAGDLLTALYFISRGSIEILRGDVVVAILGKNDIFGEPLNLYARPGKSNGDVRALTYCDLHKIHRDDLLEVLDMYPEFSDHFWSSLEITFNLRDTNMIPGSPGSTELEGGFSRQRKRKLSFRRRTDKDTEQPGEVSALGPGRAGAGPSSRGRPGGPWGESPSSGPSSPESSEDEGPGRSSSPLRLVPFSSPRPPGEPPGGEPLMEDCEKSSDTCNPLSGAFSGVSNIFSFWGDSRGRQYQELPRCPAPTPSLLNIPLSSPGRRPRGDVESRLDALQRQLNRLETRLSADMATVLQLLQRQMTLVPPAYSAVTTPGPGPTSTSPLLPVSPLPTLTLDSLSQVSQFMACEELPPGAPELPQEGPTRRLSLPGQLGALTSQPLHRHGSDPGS

average of concentration liver/heart ([2]; 10 mg/kg oral, average of 2H and 8H): 26.69
concentration at 2 h [2, 5]: 95.7 ng/g
concentration at 8 h [2, 5]: 309 ng/g
concentration at 2 h [2, 6]: 1670 ng/g
concentration at 8 h [2, 6]: 11100 ng/g
concentration at 2 h [2, 7]: 670 ng/mL
concentration at 8 h [2, 7]: 3620 ng/mL
Structure (SMILES): N#Cc1nn(-c2cc(Br)c(Oc3n[nH]c(=O)c4ccccc34)c(Br)c2)c(=O)[nH]c1=O [CS27109]
IC50 [1]: > 30 µM
hERG test result [1]: cardiac tolerable
HDL-c [3, 8]: 2.6 ± 0.62 mmol/L
LDL-c [3, 8]: 13 ± 4.3 mmol/L
TG [3, 8]: 32 ± 31 mmol/L
TC [3, 8]: 29 ± 8.6 mmol/L
ALT [3, 8]: 226 ± 104 U/L
AST [3, 8]: 564 ± 317 U/L
HDL-c [3, 9]: 3.0 ± 0.52 mmol/L
LDL-c [3, 9]: 12 ± 3.8 mmol/L
TG [3, 9]: 17 ± 26 mmol/L
TC [3, 9]: 25 ± 7.4 mmol/L
ALT [3, 9]: 141 ± 133 U/L
AST [3, 9]: 582 ± 383 U/L
HDL-c [3, 10]: 2.6 ± 0.53 mmol/L
LDL-c [3, 10]: 8.7 ± 4.1 mmol/L
TG [3, 10]: 11 ± 19 mmol/L
TC [3, 10]: 19 ± 7.9 mmol/L
AST [3, 10]: 416 ± 158 U/L
Liver TC [4, 11]: 11 ± 1.1 µmol/g
Liver TG [4, 11]: 71 ± 28 µmol/g
Liver TC [4, 12]: 10 ± 0.74 µmol/g
Liver TG [4, 12]: 54 ± 24 µmol/g
Liver TC [4, 13]: 10 ± 2.2 µmol/g
Liver TG [4, 13]: 69 ± 21 µmol/g
TG [4, 11]: 0.19 ± 0.08 mmol/L
HDL-c [4, 11]: 0.78 ± 0.18 mmol/L
LDL-c [4, 11]: 1.6 ± 0.74 mmol/L
TC [4, 11]: 4.4 ± 1.8 mmol/L
ALT [4, 11]: 85 ± 34 U/L
AST [4, 11]: 213 ± 78 U/L
TG [4, 12]: 0.22 ± 0.06 mmol/L
HDL-c [4, 12]: 0.98 ± 0.32 mmol/L
LDL-c [4, 12]: 0.84 ± 0.44 mmol/L
TC [4, 12]: 2.9 ± 0.98 mmol/L
ALT [4, 12]: 68 ± 24 U/L
AST [4, 12]: 218 ± 82 U/L
